Columns and labels:
[1] = test system: brain-dopamine concentrations; experiment: Changes in brain-dopamine concentrations after intrajugular administration of 5c; assay type: in vivo; conditions: 5c administered intrajugularly, some of the rats, others practically none
Description: To determine whether dopamine itself was finally released in the brain upon completion of the aforesaid complex delivery process, 5c was administered intrajugularly and changes in brain-dopamine concentrations following that administration were studied. […] It is known that dopamine and its agonists decrease prolactin secretion following their binding to stereospecific receptors located on lactophors in the anterior pituitary (AP) gland [G.P. Mueller, J.W. Simpkins, J. Meites and K.E. Moore, Neuroendocrinology, 20, 121 (1976); W. Wuttke, E. Cassell and J Meites, Endocrinology, 88, 737 (1971); J.A. Clemens, E.B. Smalstig and C.J. Shaar, Acta Endocrinol., 79, 230 (1975)]. This effect is dose- dependent and it can also be observed in vitro, incubating anterior pituitaries with dopamine or its agonists [R.M. MacLeod Ed. L. Martini and W.F. Ganong, Raven Press].

[2] = test system: serum prolactin; experiment: In vivo effect on pituitary prolactin secretion (17-β-estradiol primed male rats); conditions: Intravenous administration, 1 mg/kg dose level
Text: Adult male rats (Charles Rivers, CD-1) weighing 200 to 225 g were provided food and water ad libitum for at least one week period to experimentation. To elevate serum prolactin levels, each rat received a single s.c. implant of a Silastic tube (1.57 mm interior diameter, 5 mm x 3.15 mm overall size) packed with crystalline 17-,8-estradiol. Two days later the rats were lightly anesthetized with ether and a small incision was made over the right jugular vein for intravenous (LV.) administration of the test drugs. Compound 6a was injected at a dose of 1 mg/kg body weight/ml saline and groups of six rats were decapitated at 15, 30, 60 and 120 min later to collect blood samples. Control rats (time 0) received an I.V. injection of the saline vehicle and were decapitated 30 min later. Compound 5c was dissolved in 10% ethanol in saline and was injected IV. Rats were decapitated at 15, 30 and 120 min later. Control (time 0) animals received the 10% ethanol vehicle and were sampled 30 min later.
Trunk blood was collected, allowed to clot for 2h and the serum was separated and stored at -20 ° C for subsequent assay for prolactin concentrations. Each serum sample was assayed in duplicate by the doubleantibody radioimmunoassay procedure described by the National Pituitary Agency Hormone Distribution Program. Serum prolactin concentrations are expressed in terms of the PRL-RP-2 reference preparation provided. The intraassay coefficient of variation for 10 replicate samples of pooled serum obtained from male rats was 13.8%.
The effects of compounds 5c and 6a on serum prolactin concentrations were evaluated by one-way analysis of variance and Student-Newman Keuls tests. A probability level of less than 0.05 was selected for significance. See FIGURE 7 and the discussion thereof hereinabove.

[3] = Chemical oxidation by hydrogen peroxide and silver nitrate; assay type: physicochemical; conditions: H2O2 or alcoholic AgNO3 solution
Description: The stability of the 1,4-dihydropyridine derivatives (5) was determined in the presence of the oxidizing agents, alcoholic AgN03 and hydrogen peroxide. The in vitro rates of oxidation of the 1,4-dihydropyridine derivative (5c) in 80% plasma, 20% brain homogenate, 20% liver homogenate and in whole blood were determined.
To 10 ml of 30% H202 was added 0.2 g of the dihydropyridine derivative (products of Examples 5 or 8). The mixture was stirred and samples were taken to check the UV spectrum.
To 5 ml of saturated methanolic AgN03 solution was added 1 ml of 5% methanolic solution of the dihydropyridine derivative. The mixture was shaken and left for 5 min for complete precipitation of silver, centrifuged and an aliquot was taken to check the UV spectrum. Complete oxidation to the quaternary salts was observed.

- oxidation to the corresponding quaternary salt 6c [3]: quantitatively oxidized
SMILES: CN1C=CCC(C(=O)NCCc2ccc(OC(=O)C(C)(C)C)c(OC(=O)C(C)(C)C)c2)=C1 [5c, 1-Methyl-3-(N-[β-(3,4-dipivalyloxyphenyl)-ethyl]}carbamoyl-1,4-dihydropyridine]
- increase in the dopamine concentrations [1]: up to threefold increase
- time through which the reduction of serum prolactin was maintained [2]: ≥ 120 min
- decrease in serum prolactin concentrations ([2]; male rats exposed to 17-β-estradiol): 79%

— patent EP0110955B1, “BRAIN-SPECIFIC DRUG DELIVERY” (UNIVERSITY OF FLORIDA, priority 1982, dated 1983)
